How the values were obtained:
Assay in all cases: relative viability (nuclei count vs DMSO), 5 days (fraction); higher = more cells survive
[1] = compound: C[C@@H](N)c1ccc(C(=O)Nc2ccnc3[nH]ccc23)cc1 + COc1cccc2cc(-c3nc([C@H]4CC[C@H](C(=O)O)CC4)n4ncnc(N)c34)[nH]c12 [OSI-027] (partner 0.5 µM)
In short: (§1)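 Cells from lung cancer lines were seeded into 1536-well plates and, one day later, dosed by pin tool. Treatments were either a single drug or a fixed dose of an anchor drug with five library-drug doses (not always all listed) in √10 steps. After 5 days, nuclei were stained in a one-step fixation (final 0.05% Triton X-100, 1% formaldehyde, 1 ug/ml Hoechst) and counted on 4× images, and relative viability is the treated-to-vehicle nuclei ratio, as the median of duplicate plates.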

Tanzisertib + Linsitinib = compound: O[C@H]1CC[C@H](Nc2ncc3nc(Nc4c(F)cc(F)cc4F)n([C@H]4CCOC4)c3n2)CC1 [Tanzisertib] + C[C@]1(O)C[C@@H](c2nc(-c3ccc4ccc(-c5ccccc5)nc4c3)c3c(N)nccn32)C1 [Linsitinib] (partner 1 µM)
In short: as §1

[2] = compound: C1CNCCC1C2=CC(=NN2)C3=CC=NC=C3 + CC1(C)CCC(c2ccc(Cl)cc2)=C(CN2CCN(c3ccc(C(=O)NS(=O)(=O)c4ccc(N[C@H](CCN5CCOCC5)CSc5ccccc5)c(S(=O)(=O)C(F)(F)F)c4)cc3)CC2)C1 [Navitoclax] (partner 0.5 µM)
In short: as §1

Tanzisertib + Trametinib = compound: O[C@H]1CC[C@H](Nc2ncc3nc(Nc4c(F)cc(F)cc4F)n([C@H]4CCOC4)c3n2)CC1 [Tanzisertib] + CC(=O)Nc1cccc(-n2c(=O)n(C3CC3)c(=O)c3c(Nc4ccc(I)cc4F)n(C)c(=O)c(C)c32)c1 [Trametinib] (partner 0.02 µM)
In short: as §1

| Cell Line | relative viability ([1]; first compound 0.04 µM) | relative viability ([1]; first compound 0.1265 µM) | relative viability ([1]; first compound 0.4 µM) | relative viability ([1]; first compound 4 µM) | relative viability (Tanzisertib + Linsitinib; first compound 0.08 µM) | relative viability (Tanzisertib + Linsitinib; first compound 0.253 µM) | relative viability (Tanzisertib + Linsitinib; first compound 0.8 µM) | relative viability (Tanzisertib + Linsitinib; first compound 2.53 µM) | relative viability (Tanzisertib + Linsitinib; first compound 8 µM) | relative viability ([2]; first compound 0.08 µM) | relative viability ([2]; first compound 0.8 µM) | relative viability ([2]; first compound 2.53 µM) | relative viability ([2]; first compound 8 µM) | relative viability ([1]; first compound 1.265 µM) | relative viability (Tanzisertib + Trametinib; first compound 0.08 µM) | relative viability (Tanzisertib + Trametinib; first compound 0.253 µM) | relative viability (Tanzisertib + Trametinib; first compound 0.8 µM) | relative viability (Tanzisertib + Trametinib; first compound 2.53 µM) | relative viability (Tanzisertib + Trametinib; first compound 8 µM) |
| --- | --- | --- | --- | --- | --- | --- | --- | --- | --- | --- | --- | --- | --- | --- | --- | --- | --- | --- | --- |
| ABC-1 | 0.502 | 0.603 | 0.559 | 0.511 | 0.728 | 0.65 | 1.07 | 0.977 | 0.736 |  |  |  |  |  |  |  |  |  |  |
| NCI-H1650 | 0.825 | 0.773 | 0.761 | 0.664 |  |  |  |  |  | 1.11 | 1.37 | 1.12 | 1.22 | 0.707 | 0.458 | 0.689 | 0.609 | 0.532 | 0.415 |
| NCI-H1563 | 0.796 | 0.767 | 0.679 | 0.846 | 1.28 | 1.12 | 1.2 | 1.24 | 1.16 |  |  |  |  | 0.816 |  |  |  |  |  |
| NCI-H1648 | 0.265 | 0.301 | 0.267 | 0.346 |  |  |  |  |  |  |  |  |  | 0.289 | 0.492 | 0.459 | 0.51 | 0.5 | 0.482 |
| NCI-H1299 |  |  |  |  | 1.16 | 0.976 | 1.02 | 1.09 | 1.06 | 1.09 | 1.04 | 1.02 | 1.09 |  |  |  |  |  |  |
| A549 |  |  |  |  | 0.736 | 0.551 | 0.703 | 0.623 | 0.533 | 1.1 | 1.27 | 1.38 | 1.3 |  |  |  |  |  |  |
| NCI-H1623 | 0.559 | 0.418 | 0.502 | 0.503 |  |  |  |  |  |  |  |  |  | 0.469 |  |  |  |  |  |
| NCI-H1703 |  |  |  |  | 1.03 | 0.674 | 0.787 | 0.316 | 0.546 | 1.08 | 1.59 | 1.15 | 1.35 |  |  |  |  |  |  |
| NCI-H2170 | 0.775 | 0.739 | 0.747 | 0.718 |  |  |  |  |  | 0.472 | 0.697 | 0.72 | 0.698 | 0.515 | 0.989 | 0.965 | 0.927 | 0.926 | 0.874 |
| NCI-H661 | 0.754 | 0.682 | 0.636 | 0.552 | 0.657 | 0.495 | 0.619 | 0.477 | 0.599 |  |  |  |  | 0.593 | 0.684 | 0.574 | 0.55 | 0.647 | 0.54 |
| NCI-H522 | 0.657 | 0.67 | 0.78 | 0.737 |  |  |  |  |  |  |  |  |  | 0.764 | 0.766 | 0.535 | 0.688 | 0.826 | 0.69 |
| Calu-6 |  |  |  |  | 1.09 | 0.862 | 0.957 | 1.02 | 0.928 | 0.879 | 0.86 | 0.914 | 0.87 |  |  |  |  |  |  |
| ChaGo-K-1 | 0.496 | 0.487 | 0.487 | 0.564 |  |  |  |  |  | 0.861 | 1.29 | 0.682 | 1.01 | 0.297 | 0.902 | 0.896 | 0.821 | 0.91 | 0.832 |
| LCLC-103H | 0.416 | 0.453 | 0.438 | 0.432 | 0.928 | 0.994 | 0.917 | 1.06 | 1.11 |  |  |  |  | 0.463 | 0.661 | 0.744 | 0.703 | 0.691 | 0.71 |
